Here are results for 14 compounds from PubChem BioAssay (NCI).

The structures appear in SMILES notation.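 A five-concentration, 48-hour dose response in 96-well plates underlies each endpoint, interpolated linearly between surrounding concentrations. Here, GI50 denotes the concentration required for 50% inhibition of growth. The concentration for full growth arrest is given as TGI.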 A value given as a limit tells only on which side of the number the result lay.

Among the test systems are ACHN renal; SN12C renal; DU-145 prostate; SK-MEL-5 melanoma; A549 NSCLC; A498 renal; RXF 393 renal; UO-31 renal.
Holding throughout (experiment): NCI-60 cell line screen, 48 h

In the case of `Nc1ncc(Cc2ccc3c(c2)OCO3)c(N)n1`, the TGI in the assay with ACHN renal, in the assay on SN12C renal, in the assay with DU-145 prostate, with SK-MEL-5 melanoma, in the assay with A549 NSCLC and with A498 renal was above 100 µM throughout. For the same compound, the TGI in the assay with RXF 393 renal and with UO-31 renal was above 100 µM throughout.
As to `CNCc1cccc2c1OCCOCCOCCN(C)S(=O)(=O)c1ccc(cc1)-c1cnc(N)c(n1)C(=O)N2`, the GI50 with ACHN renal was 0.468 µM; with SN12C renal, 1.48 µM; with DU-145 prostate it was 1.27 µM; in the assay on SK-MEL-5 melanoma, 1.35 µM; in the assay with A549 NSCLC, 1.57 µM; in the assay on A498 renal, 0.133 µM. The GI50 in the assay on RXF 393 renal was 0.614 µM; with UO-31 renal, 1.21 µM. In addition, the TGI in the assay with ACHN renal came out at 2.21 µM; with SN12C renal, 3.41 µM; in the assay with DU-145 prostate, 15.2 µM; with SK-MEL-5 melanoma it was 2.91 µM; in the assay on A549 NSCLC it was 13.4 µM; in the assay on A498 renal, 4.04 µM. Further, the TGI in the assay with RXF 393 renal stood at 2.58 µM; with UO-31 renal it was 2.91 µM.
Turning to `CCN(C)c1nc(N(C)CC)c2nc(N(C)CC)nc(N(C)CC)c2n1`, the TGI in the assay on ACHN renal, with SN12C renal, with DU-145 prostate, in the assay on SK-MEL-5 melanoma, in the assay with A549 NSCLC and with A498 renal was above 100 µM throughout. Moreover, the TGI with RXF 393 renal and in the assay on UO-31 renal was above 100 µM in each case.
As to `CCn1cc(C(=O)O)c(=O)c2cc(F)c(N3CCN(S(=O)(=O)c4cccc5ccccc45)CC3)cc21`, the GI50 in the assay on ACHN renal is 2.88 µM; with SN12C renal, 2.59 µM; with DU-145 prostate, 3.97 µM; in the assay with SK-MEL-5 melanoma, 2.24 µM; in the assay with A549 NSCLC, 2.87 µM; in the assay with A498 renal it was 2.74 µM. For the same compound, the GI50 with RXF 393 renal is 3.19 µM; with UO-31 renal, 2.21 µM. Moreover, the TGI was above 100 µM in the assay on ACHN renal; above 100 µM in the assay with SN12C renal; above 100 µM in the assay with DU-145 prostate; 5.17 µM in the assay with SK-MEL-5 melanoma; above 100 µM in the assay with A549 NSCLC; above 100 µM in the assay with A498 renal. The TGI in the assay with RXF 393 renal stood at 11.8 µM; in the assay with UO-31 renal it was 8.95 µM.
In the case of `CCN(CC)Cc1cc(Nc2nc(NC3CCC(N(C)C)CC3)c3ccccc3n2)ccc1OC` (configuration not stated), the GI50 is 11 µM in the assay with ACHN renal; 11.3 µM in the assay with SN12C renal; 10.5 µM in the assay on DU-145 prostate; 1.54 µM with SK-MEL-5 melanoma; 3.59 µM with A549 NSCLC; 12.5 µM in the assay on A498 renal. Moreover, the figures for the GI50 with RXF 393 renal and in the assay on UO-31 renal were 0.578 µM and 12.2 µM, respectively. Also, the TGI in the assay with ACHN renal came out at 24.8 µM; in the assay on SN12C renal, 24.5 µM; in the assay with DU-145 prostate, 22.2 µM; in the assay with SK-MEL-5 melanoma it was 2.87 µM; with A549 NSCLC, 13.7 µM; in the assay on A498 renal, 25.2 µM. In addition, the values for the TGI with RXF 393 renal and in the assay on UO-31 renal were 8.44 µM and 27.2 µM, respectively.
In the case of `Cc1cccc(NC(=O)c2sc3nc4c(cc3c2N)C(=O)CCC4)c1`, the GI50 with ACHN renal was 1.48 µM; with SN12C renal, 0.74 µM; in the assay on DU-145 prostate it was 0.302 µM; in the assay with SK-MEL-5 melanoma, 0.115 µM; in the assay with A549 NSCLC it was 0.335 µM; with A498 renal, 0.0656 µM. Further, the GI50 was 0.252 µM in the assay on RXF 393 renal and 13.9 µM with UO-31 renal. Also, the TGI in the assay on ACHN renal is above 58.5 µM; in the assay on SN12C renal, above 63.8 µM; with DU-145 prostate, above 30 µM; in the assay with SK-MEL-5 melanoma, above 57.4 µM; in the assay with A549 NSCLC, above 100 µM; with A498 renal it was 0.801 µM. The compound further registered a TGI with UO-31 renal of 51.2 µM.
Regarding `CC(=O)ON1CCCC(P(=O)(OCOC(=O)C(C)(C)C)OCOC(=O)C(C)(C)C)C1=O` (configuration not stated), the GI50 in the assay with ACHN renal was 0.596 µM; with SN12C renal, 0.314 µM; in the assay with DU-145 prostate it was 1.47 µM; with SK-MEL-5 melanoma it was 0.773 µM; in the assay with A549 NSCLC, 0.514 µM; in the assay on A498 renal, 0.314 µM. Further, the GI50 in the assay with RXF 393 renal was 0.308 µM; in the assay with UO-31 renal, 0.337 µM. Further, the TGI in the assay on ACHN renal came out at 13.5 µM; with SN12C renal, 2.38 µM; with DU-145 prostate, 17.4 µM; with SK-MEL-5 melanoma, 3.04 µM; in the assay on A549 NSCLC, 18.7 µM; in the assay with A498 renal, 2.01 µM. The TGI is 1.19 µM in the assay on RXF 393 renal and 2.68 µM with UO-31 renal.
Consider `COc1cc(CNc2nc3cc(N)cc(N)c3nc2-c2ccccc2)cc(OC)c1`, for which the GI50 was 9.42 µM with ACHN renal; 11.4 µM in the assay with SN12C renal; 29.7 µM in the assay on DU-145 prostate; 13 µM in the assay on SK-MEL-5 melanoma; 33.2 µM with A549 NSCLC; 90.8 µM in the assay on A498 renal. Further, the GI50 is 6.09 µM in the assay with RXF 393 renal and 4.05 µM with UO-31 renal. Besides, the TGI in the assay with ACHN renal was 47.3 µM; in the assay with SN12C renal, above 100 µM; in the assay on DU-145 prostate, above 100 µM; with SK-MEL-5 melanoma, 41.7 µM; with A549 NSCLC, above 100 µM; in the assay on A498 renal it was above 100 µM. The results for the TGI in the assay with RXF 393 renal and with UO-31 renal were 58.5 µM and above 100 µM, respectively.
As to `O=C1/C(=C/c2ccc(Cl)c(Cl)c2)CN(C(=O)CCN2CCC(=NO)CC2)C/C1=C\c1ccc(Cl)c(Cl)c1`, the GI50 with ACHN renal was 0.641 µM; in the assay with SN12C renal, 0.597 µM; with DU-145 prostate, 1.21 µM; with SK-MEL-5 melanoma, 1.58 µM; in the assay on A549 NSCLC, 2.15 µM; in the assay with A498 renal, 1.44 µM. The values for the GI50 with RXF 393 renal and in the assay on UO-31 renal were 1.13 µM and 0.654 µM, respectively. The TGI with ACHN renal is 1.62 µM; in the assay with SN12C renal, 1.73 µM; with DU-145 prostate, 2.73 µM; with SK-MEL-5 melanoma, 3 µM; in the assay with A549 NSCLC, 6.47 µM; in the assay on A498 renal it was 2.89 µM. The values for the TGI with RXF 393 renal and with UO-31 renal were 2.59 µM and 1.34 µM, respectively.
`CC1(C)OC[C@@H]([C@@]2(CO[Si](c3ccccc3)(c3ccccc3)C(C)(C)C)CC=CC(=O)O2)O1`: the GI50 with ACHN renal is 11.4 µM; with SN12C renal it was 5.39 µM; with DU-145 prostate, 12.7 µM; with SK-MEL-5 melanoma, 4.65 µM; with A549 NSCLC it was 5.27 µM; in the assay on A498 renal it was 17.1 µM. Besides, the GI50 is 9.82 µM with RXF 393 renal and 12.2 µM with UO-31 renal. For the same compound, the TGI in the assay on ACHN renal is 36.6 µM; in the assay with SN12C renal it was 35.9 µM; in the assay on DU-145 prostate, above 100 µM; with SK-MEL-5 melanoma it was 19.4 µM; in the assay on A549 NSCLC, above 100 µM; in the assay with A498 renal, 34.2 µM. In addition, the TGI in the assay with RXF 393 renal and with UO-31 renal was above 100 µM each time.
With `COc1ccc2c(c1)C(=O)c1c-2c(Nc2ccccc2OC)nc2ccccc12`, the GI50 in the assay with ACHN renal was 89.2 µM; with SN12C renal, 42.1 µM; with DU-145 prostate it was above 100 µM; in the assay on SK-MEL-5 melanoma, above 100 µM; with A549 NSCLC, above 100 µM; in the assay on A498 renal, above 100 µM. Besides, the GI50 in the assay with RXF 393 renal and in the assay with UO-31 renal was above 100 µM each time. Moreover, the TGI in the assay with ACHN renal, with SN12C renal, with DU-145 prostate, in the assay on SK-MEL-5 melanoma, in the assay on A549 NSCLC and in the assay with A498 renal was above 100 µM in each case. The TGI with RXF 393 renal and with UO-31 renal was above 100 µM each time.
On to `Cc1c(C(=N)C(C#N)C#N)c(=N)oc2c1ccc1ccccc12`, for which the GI50 in the assay on ACHN renal is 23.1 µM; in the assay on SN12C renal, 22 µM; in the assay with DU-145 prostate, 25.3 µM; in the assay with SK-MEL-5 melanoma, 13.3 µM; in the assay on A549 NSCLC it was 32.9 µM; with A498 renal it was 9.83 µM. Further, the GI50 in the assay with RXF 393 renal was 2.76 µM; in the assay on UO-31 renal, 8.23 µM. Moreover, the TGI was above 100 µM in the assay with ACHN renal; above 100 µM in the assay with SN12C renal; above 100 µM in the assay on DU-145 prostate; 29.8 µM with SK-MEL-5 melanoma; above 100 µM in the assay on A549 NSCLC; 96 µM in the assay on A498 renal. Besides, the TGI with RXF 393 renal is 15.4 µM; in the assay on UO-31 renal, above 100 µM.
On to `Cn1nccc1Nc1nccc(-c2ccn([C@H](CO)c3ccc(Cl)c(F)c3)c(=O)c2)n1`, for which the GI50 in the assay on ACHN renal is 25 µM; in the assay on SN12C renal, 10 µM; with DU-145 prostate, 27.7 µM; in the assay with SK-MEL-5 melanoma, 12.5 µM; with A549 NSCLC, 36 µM; with A498 renal it was 1.07 µM. Also, the GI50 with RXF 393 renal was 20.4 µM; with UO-31 renal, 24.7 µM. The TGI in the assay with ACHN renal was above 100 µM; with SN12C renal it was above 100 µM; with DU-145 prostate, above 100 µM; in the assay with SK-MEL-5 melanoma, 43.3 µM; with A549 NSCLC, above 100 µM; in the assay with A498 renal it was 15.3 µM. Moreover, the TGI in the assay with RXF 393 renal is 65.5 µM; in the assay with UO-31 renal, above 100 µM.
Consider `CSC1=Nc2c(c(C)c(C)n2COC(CO)CO)C2=NC(=O)CN12`, for which the GI50 with ACHN renal, in the assay on SN12C renal, with DU-145 prostate, in the assay with SK-MEL-5 melanoma, with A549 NSCLC and in the assay on A498 renal was above 100 µM each time. For the same compound, the GI50 in the assay on RXF 393 renal and in the assay on UO-31 renal was above 100 µM each time. The TGI in the assay on ACHN renal, in the assay with SN12C renal, with DU-145 prostate, in the assay with SK-MEL-5 melanoma, with A549 NSCLC and in the assay on A498 renal was above 100 µM in each case. Moreover, the TGI in the assay with RXF 393 renal and in the assay on UO-31 renal was above 100 µM throughout.
